The nature of data set [1]: Odour threshold by gas chromatograph with sniff port, panel of trained individuals. The note with it: GC sniff port; absolute amount of compound delivered at the sniff port; same panel, couples evaluated on the same day. As for the experimental part: According to standard procedures known to the person skilled in the art, threshold values for volatile perfumery compounds were determined on a gas chromatograph equipped with a sniff port by a panel of trained individuals. The last concentration smelled by each individual was recorded as the individual threshold value expressed in ng (absolute amount of compound delivered at the sniff port). All compounds have been evaluated by the same panel. The couples (saturated and unsaturated compound) were evaluated on the same day.

Regarding `CCC(C)=C(C#N)c1ccccc1` (racemic) [Example 3, 3-Methyl-2-phenyl-pent-2-ene nitrile], in data set [1], the Odour threshold is reported as 3 ng. For orientation: melting point means the temperature of the solid-liquid transition. Consider `CC(C)=C/C=C(/C#N)c1ccccc1` [Example 6, (2E)-5-Methyl-2-phenyl-hexa-2,4-diene nitrile], for which the melting point fell in the range of 66 to 67 °C. `CCCCCCC(C#N)c1ccccc1` (centres unmarked) [Comparison Example 2A, reference compound] returned an Odour threshold in data set [1] of 15 ng. In the case of `CCCCCC=C(C#N)c1ccccc1` (stereo in doubt) [Example 2, (2E)-2-Phenyl-oct-2-ene nitrile], the Odour threshold in data set [1] stood at 2 ng. The same measure, in the same setting: then `CCC(C)C(C#N)c1ccccc1` (centres unmarked) [Comparison Example 3A, reference compound], with 26 ng.

Source of the values: patent US9102899B2, “Organic compounds” (Givaudan SA, priority 2004, dated 2015).
